{"source": "ChEMBL document CHEMBL1201862", "about": "“PubChem BioAssay data set” (2004)", "key": {"[1]": {"target": "Peroxisome proliferator-activated receptor gamma/Nuclear receptor coactivator 2 (Homo sapiens, UniProt P37231)", "sequence (P37231 whole entry)": "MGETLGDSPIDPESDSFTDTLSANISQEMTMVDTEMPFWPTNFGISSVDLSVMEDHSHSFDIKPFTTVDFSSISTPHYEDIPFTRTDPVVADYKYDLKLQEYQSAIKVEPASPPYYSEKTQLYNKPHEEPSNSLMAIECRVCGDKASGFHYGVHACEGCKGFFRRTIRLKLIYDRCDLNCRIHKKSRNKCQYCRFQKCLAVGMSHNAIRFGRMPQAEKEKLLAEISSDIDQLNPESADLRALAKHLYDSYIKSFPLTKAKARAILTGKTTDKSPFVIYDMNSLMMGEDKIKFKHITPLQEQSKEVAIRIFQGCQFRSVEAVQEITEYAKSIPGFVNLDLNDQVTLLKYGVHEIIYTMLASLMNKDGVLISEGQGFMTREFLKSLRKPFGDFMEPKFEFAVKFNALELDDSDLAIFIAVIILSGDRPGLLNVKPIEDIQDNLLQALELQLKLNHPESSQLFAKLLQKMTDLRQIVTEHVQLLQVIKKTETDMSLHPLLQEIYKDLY", "sequence (Q15596 whole entry, further chain)": "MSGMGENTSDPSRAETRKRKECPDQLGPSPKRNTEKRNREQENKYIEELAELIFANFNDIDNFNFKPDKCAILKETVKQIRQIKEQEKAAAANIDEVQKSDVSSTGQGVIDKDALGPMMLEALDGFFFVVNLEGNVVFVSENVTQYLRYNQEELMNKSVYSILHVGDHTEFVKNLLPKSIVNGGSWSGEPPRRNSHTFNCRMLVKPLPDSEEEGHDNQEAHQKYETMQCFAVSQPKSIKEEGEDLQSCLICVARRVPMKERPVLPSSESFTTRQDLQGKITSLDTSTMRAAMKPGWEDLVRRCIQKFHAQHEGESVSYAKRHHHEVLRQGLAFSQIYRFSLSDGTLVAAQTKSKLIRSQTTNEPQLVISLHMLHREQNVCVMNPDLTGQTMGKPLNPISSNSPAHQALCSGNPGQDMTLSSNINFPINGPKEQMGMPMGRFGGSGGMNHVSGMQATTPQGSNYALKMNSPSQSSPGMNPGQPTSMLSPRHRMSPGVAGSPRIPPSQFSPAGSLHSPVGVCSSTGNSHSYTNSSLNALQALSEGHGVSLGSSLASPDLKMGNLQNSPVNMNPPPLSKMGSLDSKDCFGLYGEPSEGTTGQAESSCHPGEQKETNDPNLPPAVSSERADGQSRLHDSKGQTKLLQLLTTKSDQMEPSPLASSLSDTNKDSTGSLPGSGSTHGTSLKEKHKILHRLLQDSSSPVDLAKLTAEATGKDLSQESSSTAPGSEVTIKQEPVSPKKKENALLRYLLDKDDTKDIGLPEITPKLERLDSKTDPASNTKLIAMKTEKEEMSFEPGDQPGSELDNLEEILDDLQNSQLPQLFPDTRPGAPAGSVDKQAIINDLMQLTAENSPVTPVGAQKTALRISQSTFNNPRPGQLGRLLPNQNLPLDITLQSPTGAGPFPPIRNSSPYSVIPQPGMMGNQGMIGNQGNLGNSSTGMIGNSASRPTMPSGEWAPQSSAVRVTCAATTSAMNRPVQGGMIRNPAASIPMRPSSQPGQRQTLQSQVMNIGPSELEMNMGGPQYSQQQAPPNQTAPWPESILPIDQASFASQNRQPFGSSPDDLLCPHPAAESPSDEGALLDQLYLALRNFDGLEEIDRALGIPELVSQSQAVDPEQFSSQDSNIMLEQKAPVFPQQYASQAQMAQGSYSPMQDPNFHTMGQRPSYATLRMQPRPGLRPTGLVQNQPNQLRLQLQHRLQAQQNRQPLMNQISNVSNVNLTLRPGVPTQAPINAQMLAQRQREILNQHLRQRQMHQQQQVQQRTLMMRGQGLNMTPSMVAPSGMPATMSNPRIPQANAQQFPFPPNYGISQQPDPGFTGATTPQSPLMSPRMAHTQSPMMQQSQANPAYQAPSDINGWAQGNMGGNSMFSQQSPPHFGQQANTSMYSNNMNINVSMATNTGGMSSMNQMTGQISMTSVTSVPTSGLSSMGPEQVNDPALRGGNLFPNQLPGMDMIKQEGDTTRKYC", "format": "functional"}, "[2]": {"target": "Peroxisome proliferator-activated receptor gamma/Nuclear receptor coactivator 3 (Homo sapiens, UniProt P37231)", "format": "functional"}, "[3]": {"target": "Peroxisome proliferator-activated receptor gamma/Nuclear receptor coactivator 1 (Homo sapiens, UniProt P37231)", "format": "functional"}, "[4]": {"target": "T1, Estrogen receptor (Homo sapiens, UniProt P03372)", "T1 sequence (P03372 whole entry)": "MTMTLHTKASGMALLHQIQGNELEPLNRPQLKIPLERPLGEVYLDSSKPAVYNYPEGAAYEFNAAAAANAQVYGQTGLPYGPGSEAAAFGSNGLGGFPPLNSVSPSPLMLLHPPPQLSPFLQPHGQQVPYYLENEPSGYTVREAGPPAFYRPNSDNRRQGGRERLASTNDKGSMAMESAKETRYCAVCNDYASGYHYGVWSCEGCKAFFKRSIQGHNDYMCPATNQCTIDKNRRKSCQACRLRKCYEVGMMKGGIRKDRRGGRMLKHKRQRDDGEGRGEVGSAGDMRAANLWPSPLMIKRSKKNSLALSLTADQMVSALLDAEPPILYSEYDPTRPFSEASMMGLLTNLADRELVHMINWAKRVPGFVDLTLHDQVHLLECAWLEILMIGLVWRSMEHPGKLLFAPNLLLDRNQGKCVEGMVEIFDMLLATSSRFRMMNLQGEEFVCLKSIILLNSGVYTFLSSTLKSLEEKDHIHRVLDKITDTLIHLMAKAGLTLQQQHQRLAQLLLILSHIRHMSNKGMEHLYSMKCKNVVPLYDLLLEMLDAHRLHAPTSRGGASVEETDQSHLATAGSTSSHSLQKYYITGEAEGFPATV", "test": "potentiators of ERα–SRC-1 coactivator binding, dose response, biochemical, TR-FRET, ERα LBD (AID 737)"}, "[5]": {"target": "T2, Aminopeptidase N (Plasmodium falciparum FcB1/Columbia, UniProt O96935)", "T2 sequence (O96935 whole entry)": "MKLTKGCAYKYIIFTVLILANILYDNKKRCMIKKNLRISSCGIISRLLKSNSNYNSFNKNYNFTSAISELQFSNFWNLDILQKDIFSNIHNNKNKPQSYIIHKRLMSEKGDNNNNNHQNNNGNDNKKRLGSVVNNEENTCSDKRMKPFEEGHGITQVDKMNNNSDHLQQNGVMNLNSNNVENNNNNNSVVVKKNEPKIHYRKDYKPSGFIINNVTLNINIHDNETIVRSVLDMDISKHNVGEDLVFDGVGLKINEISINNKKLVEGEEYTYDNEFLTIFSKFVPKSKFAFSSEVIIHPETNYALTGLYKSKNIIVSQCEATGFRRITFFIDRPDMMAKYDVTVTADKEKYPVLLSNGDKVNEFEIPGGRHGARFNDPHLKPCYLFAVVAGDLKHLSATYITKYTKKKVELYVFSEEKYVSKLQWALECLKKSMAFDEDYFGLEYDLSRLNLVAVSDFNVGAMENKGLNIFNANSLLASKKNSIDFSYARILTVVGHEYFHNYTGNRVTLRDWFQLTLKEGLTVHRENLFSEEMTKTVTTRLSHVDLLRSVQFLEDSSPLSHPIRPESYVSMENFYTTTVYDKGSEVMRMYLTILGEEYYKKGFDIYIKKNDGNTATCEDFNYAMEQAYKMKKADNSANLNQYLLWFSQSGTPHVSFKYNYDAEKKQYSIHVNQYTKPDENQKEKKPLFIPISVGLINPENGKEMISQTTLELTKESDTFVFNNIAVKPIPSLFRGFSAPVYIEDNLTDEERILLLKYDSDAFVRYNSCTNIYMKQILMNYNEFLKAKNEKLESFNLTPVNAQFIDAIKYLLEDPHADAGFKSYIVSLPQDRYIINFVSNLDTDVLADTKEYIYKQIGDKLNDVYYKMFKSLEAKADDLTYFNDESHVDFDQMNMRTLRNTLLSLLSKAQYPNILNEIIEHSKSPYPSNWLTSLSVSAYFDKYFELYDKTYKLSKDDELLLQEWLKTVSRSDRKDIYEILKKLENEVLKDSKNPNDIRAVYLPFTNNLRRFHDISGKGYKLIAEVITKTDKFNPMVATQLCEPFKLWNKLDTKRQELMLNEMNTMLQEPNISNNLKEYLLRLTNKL", "test": "P. falciparum M1AAP inhibitors, biochemical, fluorogenic H-Leu-NHMec substrate, 1536-well (AID 1445)", "set-up": "species or system Plasmodium falciparum 3D7, 3D7"}, "[6]": {"target": "Procathepsin L (Homo sapiens, UniProt P07711)", "sequence (P07711 whole entry)": "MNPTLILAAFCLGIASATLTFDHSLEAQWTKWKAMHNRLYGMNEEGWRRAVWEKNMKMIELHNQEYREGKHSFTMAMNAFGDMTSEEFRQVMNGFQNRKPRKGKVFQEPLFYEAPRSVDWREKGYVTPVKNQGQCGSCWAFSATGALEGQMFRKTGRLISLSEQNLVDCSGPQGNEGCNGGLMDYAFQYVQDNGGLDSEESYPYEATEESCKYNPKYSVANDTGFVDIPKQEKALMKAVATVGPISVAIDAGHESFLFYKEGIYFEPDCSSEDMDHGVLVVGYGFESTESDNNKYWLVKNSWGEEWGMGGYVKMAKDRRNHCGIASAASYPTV", "test": "cathepsin L inhibitors, dose response, counter-screen for M1/M17 aminopeptidase inhibitor project, biochemical, QFRET, 1536-well (AID 2214)"}, "[7]": {"target": "Aspartyl aminopeptidase (Plasmodium falciparum 3D7, UniProt Q8I2J3)", "sequence (Q8I2J3 whole entry)": "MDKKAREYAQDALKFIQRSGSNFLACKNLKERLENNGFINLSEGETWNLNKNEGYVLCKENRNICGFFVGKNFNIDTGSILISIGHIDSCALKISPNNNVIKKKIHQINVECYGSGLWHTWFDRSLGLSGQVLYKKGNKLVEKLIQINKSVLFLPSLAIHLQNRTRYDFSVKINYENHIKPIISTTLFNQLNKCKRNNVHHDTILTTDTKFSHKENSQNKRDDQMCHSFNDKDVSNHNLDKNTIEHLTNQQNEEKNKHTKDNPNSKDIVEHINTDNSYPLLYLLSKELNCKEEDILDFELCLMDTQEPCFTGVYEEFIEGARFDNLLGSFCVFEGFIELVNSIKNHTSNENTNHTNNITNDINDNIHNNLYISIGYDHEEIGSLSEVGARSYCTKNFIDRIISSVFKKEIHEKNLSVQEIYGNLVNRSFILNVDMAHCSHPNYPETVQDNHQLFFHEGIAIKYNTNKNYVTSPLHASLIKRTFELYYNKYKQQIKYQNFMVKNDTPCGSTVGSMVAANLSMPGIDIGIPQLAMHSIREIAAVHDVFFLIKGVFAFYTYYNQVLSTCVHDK", "test": "Counterscreen for inhibitors of M1 and M17 aminopeptidases: QFRET-based biochemical high throughput dose response assay for inhibitors of the Plasmodium falciparum M18 Aspartyl Aminopeptidase (PFM18AAP). [Related PubChem assays: 1619 (Screening assay (M17LAP inhibitors).), 1445 (Screening assay (M1AAP inhibitors).)]"}, "[8]": {"target": "T3, E3 ubiquitin-protein ligase XIAP (Homo sapiens, UniProt P98170)", "T3 sequence (P98170 whole entry)": "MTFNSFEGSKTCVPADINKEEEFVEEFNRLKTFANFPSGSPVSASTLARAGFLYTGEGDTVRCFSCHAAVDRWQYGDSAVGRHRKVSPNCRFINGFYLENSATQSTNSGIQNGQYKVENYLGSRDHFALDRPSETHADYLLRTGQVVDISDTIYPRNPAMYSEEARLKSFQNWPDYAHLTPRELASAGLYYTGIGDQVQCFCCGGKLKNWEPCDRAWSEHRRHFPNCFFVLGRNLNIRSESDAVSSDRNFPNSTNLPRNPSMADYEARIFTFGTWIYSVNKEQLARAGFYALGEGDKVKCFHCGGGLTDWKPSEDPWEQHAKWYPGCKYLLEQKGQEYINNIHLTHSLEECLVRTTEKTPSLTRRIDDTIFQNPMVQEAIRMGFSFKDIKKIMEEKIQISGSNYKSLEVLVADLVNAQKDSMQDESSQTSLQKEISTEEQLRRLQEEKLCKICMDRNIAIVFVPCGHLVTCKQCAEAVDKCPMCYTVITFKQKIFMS", "test": "Counter Screen using XIAP-Bir3 for Chemical Antagonists of Bir1/2 domains of IAP-family anti-apoptotic proteins. [Related pubchem assays (depositor defined):AID1018, AID1449, AID1514, AID1638, AID1749, AID1750, AID488957, AID488963]"}, "[9]": {"target": "T3, E3 ubiquitin-protein ligase XIAP", "test": "XIAP antagonists, biochemical, IAP family, fluorescence polarization (AID 1018)", "format": "functional"}, "[10]": {"target": "T4, Streptokinase A (Streptococcus pyogenes serotype M1, UniProt P10520)", "T4 sequence (P10520 whole entry)": "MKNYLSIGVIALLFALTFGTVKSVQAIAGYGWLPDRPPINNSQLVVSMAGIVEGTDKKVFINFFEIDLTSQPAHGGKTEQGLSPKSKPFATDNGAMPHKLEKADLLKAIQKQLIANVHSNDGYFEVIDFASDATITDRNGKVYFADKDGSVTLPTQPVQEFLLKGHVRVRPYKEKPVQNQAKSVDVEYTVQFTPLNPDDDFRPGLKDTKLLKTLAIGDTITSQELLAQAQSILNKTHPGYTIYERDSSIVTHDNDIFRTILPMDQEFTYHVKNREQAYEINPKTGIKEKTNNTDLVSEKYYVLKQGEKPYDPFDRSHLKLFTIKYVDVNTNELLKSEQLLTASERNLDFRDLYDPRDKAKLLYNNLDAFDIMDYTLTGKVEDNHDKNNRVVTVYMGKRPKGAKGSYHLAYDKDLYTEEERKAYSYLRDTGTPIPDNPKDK", "test": "S. pyogenes streptokinase expression inhibitors, potency, dose response, plasminogen activation absorbance, OD405 (AID 1914);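 note: secreted streptokinase activity via plasminogen activation per viability signal from cell pellet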", "format": "functional, Streptococcus pyogenes M1 GAS"}, "[11]": {"target": "Aryl hydrocarbon receptor (Homo sapiens, UniProt P35869)", "sequence (P35869 whole entry)": "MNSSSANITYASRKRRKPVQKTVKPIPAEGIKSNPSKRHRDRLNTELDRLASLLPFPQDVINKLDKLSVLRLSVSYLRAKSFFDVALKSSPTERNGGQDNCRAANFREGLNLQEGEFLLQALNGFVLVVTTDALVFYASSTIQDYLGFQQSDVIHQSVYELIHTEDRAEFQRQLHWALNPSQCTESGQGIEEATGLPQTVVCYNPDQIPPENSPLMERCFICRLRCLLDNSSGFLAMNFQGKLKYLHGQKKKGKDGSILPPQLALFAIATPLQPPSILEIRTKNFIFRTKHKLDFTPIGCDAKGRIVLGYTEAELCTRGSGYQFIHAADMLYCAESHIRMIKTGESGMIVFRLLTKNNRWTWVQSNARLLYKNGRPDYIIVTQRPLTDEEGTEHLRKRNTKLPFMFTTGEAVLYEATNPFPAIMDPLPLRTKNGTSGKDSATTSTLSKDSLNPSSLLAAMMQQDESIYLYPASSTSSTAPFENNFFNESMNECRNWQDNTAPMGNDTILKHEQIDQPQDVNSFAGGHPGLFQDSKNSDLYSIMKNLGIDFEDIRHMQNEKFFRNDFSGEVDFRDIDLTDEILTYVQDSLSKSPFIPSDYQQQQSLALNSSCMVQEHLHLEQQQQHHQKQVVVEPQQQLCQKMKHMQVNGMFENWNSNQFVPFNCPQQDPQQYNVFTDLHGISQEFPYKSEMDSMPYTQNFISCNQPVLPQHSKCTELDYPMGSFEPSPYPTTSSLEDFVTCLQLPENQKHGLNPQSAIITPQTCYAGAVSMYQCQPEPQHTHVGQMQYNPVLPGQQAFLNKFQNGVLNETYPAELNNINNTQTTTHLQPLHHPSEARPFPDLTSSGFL", "test": "Luminescence-based cell-based high throughput dose response assay for activators of the Aryl Hydrocarbon Receptor (AHR). [Related pubchem assays: 2796 (Primary screen (AHR activators in singlicate)), 2845 (Confirmation screen (AHR activators in triplicate)), 434939 (Counterscreen (PXR activators in triplicate)), 2804 (Summary (AHR activators))]", "format": "ADME"}, "[12]": {"target": "T5, Carboxy-terminal domain RNA polymerase II polypeptide A small phosphatase 1 (Homo sapiens, UniProt Q9GZU7)", "T5 sequence (Q9GZU7 whole entry)": "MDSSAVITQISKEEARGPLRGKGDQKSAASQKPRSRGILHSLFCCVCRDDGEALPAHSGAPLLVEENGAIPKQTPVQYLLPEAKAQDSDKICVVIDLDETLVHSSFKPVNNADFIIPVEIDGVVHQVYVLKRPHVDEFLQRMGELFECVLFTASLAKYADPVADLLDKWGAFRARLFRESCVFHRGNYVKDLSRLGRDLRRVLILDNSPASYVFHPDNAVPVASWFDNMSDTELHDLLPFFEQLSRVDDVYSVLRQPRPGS", "test": "inhibitors of CTDSP1, concentration-response testing, biochemical assay, absorbance-based, actives from ultra-high-throughput screening (AID 540297)", "format": "functional"}, "[13]": {"target": "Mitogen-activated protein kinase 10 (Homo sapiens, UniProt P53779)", "sequence (P53779 whole entry)": "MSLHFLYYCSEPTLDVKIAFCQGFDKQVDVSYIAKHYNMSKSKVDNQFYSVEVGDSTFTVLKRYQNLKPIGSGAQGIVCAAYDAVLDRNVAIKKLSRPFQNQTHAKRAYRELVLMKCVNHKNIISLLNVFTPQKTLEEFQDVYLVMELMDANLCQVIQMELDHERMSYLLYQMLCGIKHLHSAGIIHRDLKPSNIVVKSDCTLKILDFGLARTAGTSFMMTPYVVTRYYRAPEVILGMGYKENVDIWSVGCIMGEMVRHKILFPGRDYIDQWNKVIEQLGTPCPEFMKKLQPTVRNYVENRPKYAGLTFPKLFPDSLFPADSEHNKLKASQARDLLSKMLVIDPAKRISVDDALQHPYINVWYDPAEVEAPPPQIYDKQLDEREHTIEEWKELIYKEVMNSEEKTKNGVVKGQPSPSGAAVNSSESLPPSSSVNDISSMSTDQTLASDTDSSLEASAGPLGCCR", "test": "Dose response biochemical screening assay for inhibitors of c-Jun N-Terminal Kinase 3 (JNK3). [Related pubchem assays: 746 ]"}, "[14]": {"target": "T6, Ubiquitin-conjugating enzyme E2 N (Homo sapiens, UniProt P61088)", "T6 sequence (P61088 whole entry)": "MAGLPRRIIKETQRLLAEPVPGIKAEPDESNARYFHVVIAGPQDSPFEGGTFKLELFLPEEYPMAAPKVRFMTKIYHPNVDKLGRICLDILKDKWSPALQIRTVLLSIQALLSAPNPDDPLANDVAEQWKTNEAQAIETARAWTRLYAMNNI", "format": "functional"}}, "note": "Calls of active or inactive are those of the source.", "data": [{"smiles": "O=C(COC(=O)c1sc2ccccc2c1Cl)Nc1ncc(Cl)cc1Cl", "values": [{"measurement": "EC50", "setting": "[1]", "value": "18.8 µM (not active)"}, {"measurement": "EC50", "setting": "[2]", "value": "25.5 µM (not active)"}, {"measurement": "EC50", "setting": "[3]", "value": "21.6 µM (not active)"}]}, {"smiles": "NC(=O)c1oc2ccccc2c1NC(=O)c1nc2ccccc2s1", "values": [{"measurement": "EC50", "setting": "[4]", "value": "13.4 µM (active)"}]}, {"smiles": "O=C(O)CCC(=O)N1N=C(c2c(O)nc3ccc(Cl)cc3c2-c2ccccc2)CC1c1cccs1", "note": "(stereo unspecified)", "values": [{"measurement": "IC50", "setting": "[5]", "value": "5.76 µM (active)"}, {"measurement": "IC50", "setting": "[6]", "value": "> 59.6 µM (not active)"}, {"measurement": "IC50", "setting": "[7]", "value": "> 73.5 µM (not active)"}]}, {"smiles": "CCCN1Cc2cccc(C(=O)Nc3ccc4c(c3)OCO4)c2C1=O", "values": [{"measurement": "IC50", "setting": "[8]", "value": "> 100 µM (inactive)"}, {"measurement": "IC50", "setting": "[9]", "value": "> 100 µM (not active)"}]}, {"smiles": "CC(=O)N1CCCc2cc(S(=O)(=O)N(CC(C)C)CC(C)C)ccc21", "values": [{"measurement": "IC50", "setting": "[8]", "value": "> 100 µM (inactive)"}, {"measurement": "IC50", "setting": "[9]", "value": "> 100 µM (not active)"}]}, {"smiles": "Cc1ccc(NC(=S)c2nc3ccccc3[nH]2)c(C)c1", "values": [{"measurement": "EC50", "setting": "[10]", "value": "> 150 µM (not active)"}, {"measurement": "EC50", "setting": "[11]", "value": "3.65 µM (active)"}]}, {"smiles": "O=C(CCCCCn1c(SCc2ccncc2)nc2ccccc2c1=O)NCc1ccco1", "values": [{"measurement": "IC50", "setting": "[12]", "value": "35.8 µM (active)"}, {"measurement": "IC50", "setting": "[13]", "value": "73.1 µM (not active)"}, {"measurement": "IC50", "setting": "[14]", "value": "> 20 µM (inactive)"}]}]}
